# Test results reported in patent EP4624465A1, “COMPOUND SERVING AS DDR1 KINASE INHIBITOR, AND MEDICINE” (Nippon Shinyaku Co., Ltd., priority 2022, dated 2024).
# Structures can show the parent of a compound that is named as a salt.
# Target: DDR1 kinase (Homo sapiens, UniProt Q08345)
# Assay: Evaluation of DDR1 kinase inhibition (LANCE Ultra TR-FRET kinase assay)
# Type: biochemical
# Design: purchased Carna Biosciences 08-113
# Conditions: DDR1 protein 0.5 nM, LANCE Ultra ULight-poly GAT substrate, 2 hours at room temperature, duplicate; read-out: DDR-1 IC50
# DDR1 kinase, sequence (Q08345 19-876 isoform Q08345-2 limits assumed): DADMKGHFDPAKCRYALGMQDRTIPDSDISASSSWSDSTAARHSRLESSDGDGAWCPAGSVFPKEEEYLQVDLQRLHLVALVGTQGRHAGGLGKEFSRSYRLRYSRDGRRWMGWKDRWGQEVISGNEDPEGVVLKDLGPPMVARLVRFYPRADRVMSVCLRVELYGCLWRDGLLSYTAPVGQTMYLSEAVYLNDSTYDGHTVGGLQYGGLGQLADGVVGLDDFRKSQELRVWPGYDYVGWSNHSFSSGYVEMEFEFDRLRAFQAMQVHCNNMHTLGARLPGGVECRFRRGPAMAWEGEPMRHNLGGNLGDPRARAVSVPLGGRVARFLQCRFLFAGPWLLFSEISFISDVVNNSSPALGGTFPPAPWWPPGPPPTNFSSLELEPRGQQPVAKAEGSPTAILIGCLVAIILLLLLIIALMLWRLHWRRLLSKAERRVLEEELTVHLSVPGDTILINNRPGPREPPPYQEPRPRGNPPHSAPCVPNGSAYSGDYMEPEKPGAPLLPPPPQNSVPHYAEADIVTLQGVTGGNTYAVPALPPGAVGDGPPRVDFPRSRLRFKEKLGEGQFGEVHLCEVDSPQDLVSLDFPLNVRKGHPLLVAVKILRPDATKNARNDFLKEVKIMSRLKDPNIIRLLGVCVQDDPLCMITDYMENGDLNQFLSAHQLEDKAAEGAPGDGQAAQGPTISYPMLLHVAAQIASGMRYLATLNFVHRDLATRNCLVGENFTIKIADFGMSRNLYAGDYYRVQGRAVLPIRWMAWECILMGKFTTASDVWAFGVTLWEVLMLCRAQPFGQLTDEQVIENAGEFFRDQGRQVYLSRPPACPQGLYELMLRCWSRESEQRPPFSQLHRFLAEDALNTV
row,SMILES,IC50 [nM]
1,"Nc1cc(C(=O)N2CC(c3nn(CC4CN(c5ccccc5)C4)c4cc(F)cc(F)c34)C2)ccn1 [Compound E-157, 4-(3-{4,6-difluoro-1-[(1-phenylazetidin-3-yl)methyl)-1H-indazol-3-yl}azetidine-1-carbonyl)pyridin-2-amine]",350
2,CN(CCN1CCOCC1)C(=O)Cn1nc(C2CN(C(=O)c3cc(N)ncc3F)C2)c2ccccc21 [Compound E-264],170
3,Nc1cc(C(=O)N2CC(c3nn(Cc4ccc(C(F)(F)F)cn4)c4cncc(F)c34)C2)ccn1 [Compound E-150],350
4,"CN(CC(F)(F)F)C(=O)Cn1nc(C2(C)CN(C(=O)c3ccnc(N)c3)C2)c2ccccc21 [Compound E-273, 2-{3-[1-(2-aminopyridine-4-carbonyl)-3-methylazetidin-3-yl]-1H-indazol-1-yl}-N-methyl-N-(2,2,2-trifluoroethyl)acetamide]",60
5,"CN(CC(F)(F)F)C(=O)Cn1nc(C2CN(C(=O)c3ccnc(N)n3)C2)c2c(F)cc(F)cc21 [Compound E-289, 2-{3-[1-(2-aminopyrimidine-4-carbonyl)azetidin-3-yl]-4,6-difluoro-1H-indazol-1-yl)-N-methyl-N-(2,2,2-trifluoroethyl)acetamide]",45
6,"Nc1cc(C(=O)N2CC(c3nn(Cc4ccccc4C(F)(F)F)c4cccc(F)c34)C2)ccn1 [Compound E-114, 4-[3-(4-fluoro-1-{[2-(trifluoromethyl)phenyllmethyl}-1H-indazol-3-yl)azetidine-1-carbonyl]pyridin-2-amine hydrochloride]",56
7,"Nc1cc(C(=O)N2CC(c3nn(CC(=O)NC4CCC(F)(F)CC4)c4ccccc34)C2)ccn1 [Compound E-235, 2-{3-[1-(2-aminopyridine-4-carbonyl)azetidin-3-yl]-1H-indazol-1-yl}-N-(4,4-difluorocyclohexyl)acetamide]",59
8,"Nc1cc(C(=O)N2CC(c3nn(CC(=O)N4CCC5CC54)c4ccccc34)C2)ccn1 (centres unmarked) [Compound E-223, 2-{3-[1-(2-aminopyridine-4-carbonyl)azetidin-3-yl]-1H-indazol-1-yl}-1-{2-azabicyclo[3.1.0)hexan-2-yl}ethan-1-one]",82
9,"Nc1cc(C(=O)N2CC(c3nn(CC(=O)NC4CCOCC4)c4ccccc34)C2)ccn1 [Compound E-233, 2-{3-[1-(2-aminopyridine-4-carbonyl)azetidin-3-yl]-1H-indazol-1-yl}-N-(oxan-4-yl)acetamide]",500
10,"Nc1cc(C(=O)N2CC=C(c3nn(CC(=O)N4CCC[C@H]4C(F)(F)F)c4ccccc34)CC2)c(F)cn1 [Compound E-47, 2-{3-[1-(2-amino-5-fluoropyridine-4-carbonyl)-1,2,3,6-tetrahydropyridin-4-yl]-1H-indazol-1-yl}-1-[(2S)-2-(trifluoromethyl)pyrrolidin-1-yl]ethan-1-one]",140
11,"Nc1cc(C(=O)N2CC(c3nn(CC4Cc5ccccc5C4)c4cc(F)cc(F)c34)C2)ccn1 [Compound E-171, 4-(3-{1-[(2,3-dihydro-1H-inden-2-yl)methyl]-4,6-difluoro-1H-indazol-3-yl}azetidine-1-carbonyl)pyridin-2-amine]",34
12,"CN(CC(F)(F)F)C(=O)Cn1nc(C2CN(C(=O)c3ccnc(N)n3)C2)c2cc(F)c(F)cc21 [Compound E-282, 2-{3-[1-(2-aminopyrimidine-4-carbonyl)azetidin-3-yl]-5,6-difluoro-1H-indazol-1-yl}-N-methyl-N-(2,2,2-trifluoroethyl)acetamide]",52
13,"O=C(C1CCOCC1)N1CC(c2nn(CC(=O)N3CCC[C@H]3C(F)(F)F)c3cc(F)cc(F)c23)C1 [Compound E-162, 2-{4,6-difluoro-3-[1-(oxane-4-carbonyl)azetidin-3-yl]-1H-indazol-1-yl}-1-[(2S)-2-(trifluoromethyl)pyrrolidin-1-yl]ethan-1-one]",320
14,"Nc1cc(C(=O)N2CC(c3nn(CC(=O)N4CCC[C@H]4CO)c4ccccc34)C2)ccn1 [Compound E-219, 2-{3-[1-(2-aminopyridine-4-carbonyl)azetidin-3-yl]-1H-indazol-1-yl]-1-[(2S)-2-(hydroxymethyl)pyrrolidin-1-yl]ethan-1-one]",160
15,"Nc1cc(C(=O)N2CC(c3nn(Cc4nnc(C(F)(F)F)o4)c4cccc(F)c34)C2)ccn1 [Compound E-128, 4-[3-(4-fluoro-1-{[5-(trifluoromethyl)-1,3,4-oxadiazol-2-yl]methyl}-1H-indazol-3-yl)azetidine-1-carbonyl}pyridin-2-amine]",180

# Stronger by IC50, values ahead:
row,IC50 [nM],SMILES
1,30,"CO[C@@H]1CCN(C(=O)Cn2nc(C3CN(C(=O)c4cc(N)ncc4F)C3)c3ccccc32)C1 [Compound E-231, 2-{3-[1-(2-amino-5-fluoropyridine-4-carbonyl)azetidin-3-yl]-1H-indazol-1-yl}-1-1(3R)-3-methoxypyrrolidin-1-yllethan-1-one]"
2,14,"Cc1ccc2c(c1)c(C1CN(C(=O)c3ccnc(N)n3)C1)nn2CC(=O)N(C)CC(F)(F)F [Compound E-288, 2-{3-[1-(2-aminopyrimidine-4-carbonyl)azetidin-3-yl]-5-methyl-1H-indazol-1-yl}-N-methyl-N-(2,2,2-trifluoroethyl)acetamide]"
3,11,"CC1(C)CCCN1C(=O)Cn1nc(C2CN(C(=O)c3ccnc(N)c3)C2)c2c(F)cc(F)cc21 [Compound E-127, 2-{3-[1-(2-aminopyridine-4-carbonyl)azetidin-3-yl]-4,6-difluoro-1H-indazol-1-yl}-1-(2,2-dimethylpyrrolidin-1-yl)ethan-1-one]"
4,9,Nc1cc(C(=O)N2CC(c3nn(CC(=O)N4CCC[C@H]4C(F)(F)F)c4c3CC(F)(F)CC4)C2)c(F)cn1 [Compound E-25]
5,8.8,"Nc1cc(C(=O)N2CC(c3nn(CC(=O)N4CCOC[C@H]4C(F)(F)F)c4cc(F)cc(F)c34)C2)ccn1 [Compound E-123, 2-{3-[1-(2-aminopyridine-4-carbonyl)azetidin-3-yl]-4,6-difluoro-1H-indazol-1-yl}-1-[(3S)-3-(trifluoromethyl)morpholin-4-yl]ethan-1-one]"
6,8.4,"CC1(C)CN(C(=O)Cn2nc(C3CN(C(=O)c4cc(N)ncc4F)C3)c3c(F)cc(F)cc32)CCO1 [Compound E-176, 2-{3-[1-(2-amino-5-fluoropyridine-4-carbonyl)azetidin-3-yl)-4,6-difluoro-1H-indazol-1-yl}-1-(2,2-dimethylmorpholin-4-yl)ethan-1-one]"
7,7.8,"CN(CC(F)(F)F)C(=O)Cn1nc(C2CN(C(=O)c3ccnc(N)n3)C2)c2c(Cl)c(F)ccc21 [Compound E-287, 2-{3-(1-(2-aminopyrimidine-4-carbonyl)azetidin-3-yl]-4-chloro-5-fluoro-1H-indazol-1-yl}-N-methyl-N-(2,2,2-trifluoroethyl)acetamide]"
8,6.2,"CC(C)N(C(=O)Cn1nc(C2CN(C(=O)c3cc(N)ncc3F)C2)c2ccccc21)C(C)C [Compound E-267, 2-{3-[1-(2-amino-5-fluoropyridine-4-carbonyl)azetidin-3-yl]-1H-indazol-1-yl}-N,N-bis(propan-2-yl)acetamide]"
9,5.2,"CC(C)(C)NC(=O)Cn1nc(C2CN(C(=O)c3cc(N)ncc3F)C2)c2ccccc21 [Compound E-199, 2-{3-[1-(2-amino-5-fluoropyridine-4-carbonyl)azetidin-3-yl]-1H-indazol-1-yl}-N-tert-butylacetamide]"
10,5.1,"Nc1cc(C(=O)N2CC(c3nn(Cc4noc(C5(C(F)(F)F)CC5)n4)c4cncc(F)c34)C2)ccn1 [Compound E-14, 4-{3-[4-fluoro-1-({5-[1-(trifluoromethyl)cyclopropyl]-1,2,4-oxadiazol-3-yl)methyl)-1H-pyrazolo[3,4-c]pyridin-3-yl]azetidine-1-carbonyl}pyridin-2-amine]"
11,5,"Nc1nccc(C(=O)N2CC(c3nn(CC(=O)N4CCC[C@H]4C(F)(F)F)c4cc(F)ccc34)C2)n1 [Compound E-286, 2-{3-[1-(2-aminopyrimidine-4-carbonyl)azetidin-3-yl]-6-fluoro-1H-indazol-1-yl}-1-[(2S)-2-(trifluoromethyl)pyrrolidin-1-yl]ethan-1-one]"
12,2.3,"Cc1ccc2c(c1)c(C1CN(C(=O)c3ccnc(N)n3)C1)nn2CC(=O)N1CCC[C@H]1C(F)(F)F [Compound E-292, 2-{3-[1-(2-aminopyrimidine-4-carbonyl)azetidin-3-yl]-5-methyl-1H-indazol-1-yl]-1-[(2S)-2-(trifluoromethyl)pyrrolidin-1-yl]ethan-1-one]"
13,1.4,"Nc1cc(C(=O)N2CC(c3nn(CC(=O)N4CCC[C@H]4C(F)(F)F)c4ccc(F)c(Cl)c34)C2)ccn1 [Compound E-144, 2-{3-[1-(2-aminopyridine-4-carbonyl)azetidin-3-yl]-4-chloro-5-fluoro-1H-indazol-1-yl}-1-[(2S)-2-(trifluoromethyl)pyrrolidin-1-yl]ethan-1-one]"
14,1.3,"Nc1cc(C(=O)N2CC(F)(c3nn(CC(=O)N4CCC[C@H]4C(F)(F)F)c4ccccc34)C2)c(F)cn1 [Compound E-285, 2-(3-[1-(2-amino-5-fluoropyridine-4-carbonyl)-3-fluoroazetidin-3-yl]-1H-indazol-1-yl}-1-[(2S)-2-(trifluoromethyl)pyrrolidin-1-yl]ethan-1-one]"
15,1.1,"Nc1cc(C(=O)N2CC(c3nn(CC(=O)N4CCC[C@H]4C(F)(F)F)c4ccc(F)cc34)C2)ccn1 [Compound E-202, 2-{3-[1-(2-aminopyridine-4-carbonyl)azetidin-3-yl]-5-fluoro-1H-indazol-1-yl}-1-[(28)-2-(trifluoromethyl)pyrrolidin-1-yl]ethan-1-one]"
16,0.3,Nc1cc(C(=O)N2CC(c3nn(CC(=O)N4CCc5ccc(Br)cc54)c4cc(F)cc(F)c34)C2)ccn1 [Compound E-161]
17,0.3,"Nc1cc(C(=O)N2CCC(c3cn(CC(=O)N4CCC[C@H]4C(F)(F)F)c4cccc(F)c34)CC2)c(F)cn1 [Compound E-10, 2-{3-[1-(2-amino-5-fluoropyridine-4-carbonyl)piperidin-4-yl]-4-fluoro-1H-indol-1-yl}-1-[(2S)-2-(trifluoromethyl)pyrrolidin-1-yl]ethan-1-one]"
